The text below walks through data of US20140249156A1, “Treatment Of Blood Lipid Abnormalities And Other Conditions” (GlaxoSmithKline LLC, priority 2011, published 2014).

One experiment has as its system male Crl:CD(SD) rats. Briefly: Appearance of radiolabeled cholesterol (chylomicrons) in circulation after labeled oral fat challenge with triton block. The class given is in vivo, rat. The note with it: vs vehicle; for appearance of 3H cholesterol (CPM) in the serum: 3H cholesterol tracer. The text has this: A rat model (male Crl:CD(SD) rats) was used for the evaluation of a diverse set of GPR119 agonists. The objective of the studies was to determine if administration of a single dose of an agonist affects the appearance of chylomicrons containing either ^3H- or ^14C-cholesterol in circulation of fasted Crl:CD(SD) rats.
In order to track chylomicron appearance in circulation, radiolabeled cholesterol (with or without radiolabeled retinol) was co-administered with olive oil by oral gavage. Both tracers label the chylomicron core as the cholesterol administered is esterified in the enterocyte, packaged into the chylomicron, and released into the lymphatic system for transport to the systemic circulation. In order to assess appearance and accumulation of the newly formed chylomicrons in circulation, triton was administered by intravenous injection to block the clearance of these particles from circulation.
The rats had been previously instrumented with an implanted jugular catheter to facilitate obtaining multiple blood samples without stress to the animal. Rats were fasted overnight prior to labeled oral fat challenge. All compounds were dosed one hour prior to the challenge test. Treatment groups were randomized by body weight.
All compounds were administered at 5 mL/kg by the oral route as suspensions in hydroxypropylmethylcellulose (0.5%) which contained 0.1% Tween 80. Triton (250 mg/kg) was administered by intravenous injection immediately prior to an oral gavage of the tracer mixed with olive oil. Total volume of olive oil administered per rat was 2 mL, which contained (per 2 mL olive oil) either:
5-10 uCi ^14C-cholesterol (alone or in combination with 80 uCi ^3H-retinol)
5-20 uCi ^3H-cholesterol.
Blood samples were taken at the following time points: 0.25, 0.5, 0.75, 1, 2, 3, 4, 5 and 6 hours post olive oil gavage. Samples were spun at 8,000×g for 8 minutes at room temperature and 100 uL aliquots of serum counted for ^3H or ^14C.

Another experiment deals with humans. The note with it: cited from earlier work.
Setting [1] is: single oral dose 30 mg/kg one hour before olive oil containing 14C cholesterol.
[2] abbreviates: previously discovered, patients.

Take `Cc1cc(S(C)(=O)=O)ccc1N1CCc2c(OC3CCN(C(=O)OC(C)C)CC3)ncnc21` [Compound H, 1-methylethyl 4-({7-[2-methyl-4-(methylsulfonyl)phenyl]-6,7-dihydro-5H-pyrrolo[2,3-d]pyrimidin-4-yl}oxy)-1-piperidinecarboxylate]: the “appearance of 3H cholesterol (CPM) in the serum” value (from here on “appearance of 3H cholesterol”) in the experiment with male Crl:CD(SD) rats (single oral dose 30 mg/kg) is listed as “significant reduced”.
On to `C[C@@H](OC1CCN(C(=O)OC(C)(C)C)CC1)c1nc(-c2ccc(S(C)(=O)=O)c(F)c2)no1` [Compound J, 1,1-dimethylethyl 4-[((1R)-1-{3-[3-fluoro-4-(methylsulfonyl)phenyl]-1,2,4-oxadiazol-5-yl}ethyl)oxy]-1-piperidinecarboxylate], for which the “appearance of 3H cholesterol” value with male Crl:CD(SD) rats (single oral dose 30 mg/kg) is given as “significant reduced”.
Consider `Cc1ncccc1Oc1ncnc(OC2CCN(C(=O)OC(C)C)CC2)c1C.Cl` [Compound G, 1-methylethyl 4-({5-methyl-6-[(2-methyl-3-pyridinyl)oxy]-4-pyrimidinyl}oxy)-1-piperidinecarboxylate hydrochloride], for which the “appearance of 3H cholesterol” value in the experiment with male Crl:CD(SD) rats (single oral dose 30 mg/kg) is recorded as “significant reduced”.
As to `CC(C)c1noc(N2CCC(COc3ccc(-c4ccc(S(C)(=O)=O)cc4)nc3)CC2)n1` [Compound A, 5-[({1-[3-(1-methylethyl)-1,2,4-oxadiazol-5-yl]-4-piperidinyl}methyl)oxy]-2-[4-(methylsulfonyl)phenyl]pyridine], the “appearance of 3H cholesterol” value with male Crl:CD(SD) rats (single oral dose 3 mg/kg) was “decreased”. Besides, the “appearance of 14C labeled chylomicrons in circulation” value (shortened to “appearance … in circulation”) in the experiment with male Crl:CD(SD) rats (single oral dose 3 mg/kg, olive oil containing 14C cholesterol) is on record as “significantly reduced”. For the same compound, the “appearance of 3H cholesterol” value in the experiment with male Crl:CD(SD) rats (single oral dose 10 mg/kg) is listed as “decreased”. For the same compound, the “appearance … in circulation” value in the experiment with male Crl:CD(SD) rats (single oral dose 10 mg/kg, olive oil containing 14C cholesterol) is “significantly reduced”. Moreover, the “appearance … in circulation” value in the experiment on male Crl:CD(SD) rats (setting [1]) is on record as “significantly reduced”. For the same compound, in the experiment with humans (humans), the “fasting ApoB/B100” value is listed as “reducing”, the “fasting ApoB/B100:ApoA1 ratio” value is listed as “reducing”, the “fasting ApoE” value is “reducing” and the “fasting HDL cholesterol” value is listed as “increasing”. Further, in the experiment on humans (humans), the “fasting LDL cholesterol” value is reported as “reduced”, the “fasting LDL cholesterol:HDL cholesterol ratio” value is “reducing”, the “fasting non-HDL cholesterol” value is “reducing” and the “fasting plasma alanine aminotransferase” value was “reducing”. Besides, in the experiment with humans (humans), the “fasting plasma uric acid” value is “reducing”, the fasting total cholesterol entry is recorded as “reducing”, the “fasting total cholesterol:HDL cholesterol ratio” value is “reducing” and the fasting triglycerides result was “reducing”. The prandial triglycerides entry in the experiment with humans (humans) is on record as “reducing”. In the experiment with humans (patients treated with Compound A), the “rise in serum triglycerides that occurs following meals” value is recorded as “significantly blunted”. In the experiment on humans (setting [2]), the HDL cholesterol result is listed as “raises”, the LDL cholesterol result is given as “lowers” and the total cholesterol entry was “lowers”.
For the compound `CC(C)c1noc(N2CCC([C@H](C)Oc3cnc(-c4ccc(S(C)(=O)=O)cc4)cn3)CC2)n1` [Compound B, 2-[((1S)-1-{1-[3-(1-methylethyl)-1,2,4-oxadiazol-5-yl]-4-piperidinyl}ethyl)oxy]-5-[4-(methylsulfonyl)phenyl]pyrazine], in the experiment on male Crl:CD(SD) rats (setting [1]), the “appearance … in circulation” value was “significantly reduced”. In addition, the “appearance of 3H cholesterol” value in the experiment on male Crl:CD(SD) rats (single oral dose 30 mg/kg) was “decreased”.
As to `CC(C)n1nnc(N2CCC([C@H](C)Oc3cnc(-c4ccc(S(C)(=O)=O)cc4)cn3)CC2)n1` [Compound I, 2-[((1S)-1-{1-[2-(1-methylethyl)-2H-tetrazol-5-yl]-4-piperidinyl}ethyl)oxy]-5-[4-(methylsulfonyl)phenyl]pyrazine], the “appearance of 3H cholesterol” value in the experiment on male Crl:CD(SD) rats (single oral dose 30 mg/kg) is listed as “significant reduced”.
